# The source made the active and inactive calls. The calls are words filed in the database; no cut-off is given here.
# Assays:
# DLD-1 [1] = assay: Upregulation of JNK protein expression in TNF-alpha stimulated human DLD-1 cells at 50 uM preincubated for 4 hrs and followed TNF-alpha stimulation and measured after 10 mins by Western blot analysis; assay type: functional, cell-based; conditions: time 250.0 min
# DLD-1 [2] = assay: Inhibition of TNF-alpha induced MAPK signaling pathway activation in human DLD-1 cells assessed as decrease in phospho-ERK protein expression at 12.5 uM preincubated for 4 hrs and followed TNF-alpha stimulation and measured after 10 mins by Western blot analysis; assay type: cell-based; conditions: time 250.0 min
# [3] = Selectivity index, ratio of CC50 for cytotoxicity against LPS/IFNgamma induced mouse RAW264.7 cells to IC50 for antiinflammatory activity in mouse RAW264.7 cells assessed as inhibition in LPS/IFNgamma-induced NO production; assay type: toxicity, cell-based; conditions: RAW264.7 cells induced with LPS/IFNgamma, read-out: Ratio IC50
# Mus musculus [4] = assay: Anti-inflammatory activity in C57BL/6 mouse model of DSS-induced acute ulcerative colitis assessed as reduction in tissue lesions at 100 to 300 mg/kg, po administered once a day for 7 days by H and E staining based analysis; assay type: functional, organism-based; conditions: dose 100-300 mg/kg, time 7.0 day
# Mus musculus [5] = assay: Anti-inflammatory activity in po dosed C57BL/6 mouse model of DSS-induced acute ulcerative colitis assessed as reduction in IL-1beta mRNA expression in colon administered once a day for 7 days by RT-PCR analysis; assay type: functional, organism-based; conditions: dose 100-300 mg/kg, time 7.0 day
# HCT-116 [6] = assay: Activation of MAPK signaling pathway in TNF-alpha stimulated human HCT-116 cells assessed as increase in phospho-JNK protein expression at 50 uM preincubated for 4 hrs and followed TNF-alpha stimulation and measured after 10 mins by Western blot analysis; assay type: cell-based; conditions: filed as activator, time 250.0 min
# DLD-1 [7] = assay: Inhibition of TNF-alpha induced MAPK signaling pathway activation in human DLD-1 cells assessed as decrease in phospho-JNK protein expression at 12.5 uM preincubated for 4 hrs and followed TNF-alpha stimulation and measured after 10 mins by Western blot analysis; assay type: cell-based; conditions: time 250.0 min
# [8] = Toxicity in Kunming mouse assessed as number of mouse survived at 667 mg/kg, po measured for 15 days; assay type: organism-based; conditions: in vivo, 360 h, time 15 day
# Mus musculus [9] = assay: Anti-inflammatory activity in po dosed C57BL/6 mouse model of DSS-induced acute ulcerative colitis assessed as reduction in TNFalpha mRNA expression in colon administered once a day for 7 days by RT-PCR analysis; assay type: functional, organism-based; conditions: dose 100-300 mg/kg, time 7.0 day
# DLD-1 [10] = assay: Activation of MAPK signaling pathway in TNF-alpha stimulated human DLD-1 cells assessed as increase in phospho-ERK protein expression at 50 uM preincubated for 4 hrs and followed TNF-alpha stimulation and measured after 10 mins by Western blot analysis; assay type: cell-based; conditions: filed as activator, time 250.0 min
# HCT-116 [11] = assay: Activation of MAPK signaling pathway in TNF-alpha stimulated human HCT-116 cells assessed as increase in phospho-ERK protein expression at 50 uM preincubated for 4 hrs and followed TNF-alpha stimulation and measured after 10 mins by Western blot analysis; assay type: cell-based; conditions: filed as activator, time 250.0 min
# Mus musculus [12] = assay: Anti-inflammatory activity in C57BL/6 mouse model of DSS-induced acute ulcerative colitis assessed as reduction in p65 expression in colon at 100 to 300 mg/kg, po administered once a day for 7 days by immunohistochemical analysis; assay type: functional, organism-based; conditions: dose 100-300 mg/kg, time 7.0 day
# [13] = molecular target: T1, NF-kappa-B inhibitor alpha (Homo sapiens) (UniProt P25963); assay: Inhibition of proteasomal degradation of IkappaBalpha in TNF-alpha induced human DLD-1 cells assessed as increase in IkappaBalpha protein expression at 12.5 to 50 uM preincubated for 4 hrs and followed TNF-alpha stimulation and measured after 10 mins by Western blot analysis; assay type: cell-based; conditions: dose 12.5-50 µM, time 250.0 min
# T1 sequence (whole entry): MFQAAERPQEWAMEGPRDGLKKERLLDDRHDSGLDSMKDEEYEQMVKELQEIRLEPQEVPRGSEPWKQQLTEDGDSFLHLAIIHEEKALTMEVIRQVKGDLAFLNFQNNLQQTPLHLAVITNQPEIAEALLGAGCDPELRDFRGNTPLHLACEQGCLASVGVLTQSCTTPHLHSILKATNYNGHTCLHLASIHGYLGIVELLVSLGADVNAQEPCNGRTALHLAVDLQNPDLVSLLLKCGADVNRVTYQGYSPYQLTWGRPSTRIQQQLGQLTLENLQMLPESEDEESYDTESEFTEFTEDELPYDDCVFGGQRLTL
# HCT-116 [14] = assay: Inhibition of TNF-alpha induced NF-kB activation in human HCT-116 cells assessed as decrease in phosphorylated IKK protein expression preincubated for 4 hrs and followed TNF-alpha stimulation and measured after 10 mins by Western blot analysis; assay type: cell-based; conditions: dose 12.5-50 µM, time 250.0 min
# [15] = Inhibition of TNF-alpha induced NF-kappaB activation in HEK293T cells preincubated for 4 hrs and followed by TNF-alpha stimulation and measured after 4 hrs by dual-luciferase reporter assay; assay type: cell-based; conditions: Homo sapiens, HEK-293T
# [16] = Cytotoxicity against TNF-alpha induced HEK293T cells assessed as inhibition of cell growth preincubated for 24 hrs followed by TNFalpha stimulation and measured after 4 hrs by SRB assay; assay type: toxicity, cell-based, HEK-293T; conditions: human, HEK293T cells induced with TNF-alpha; time 28 hrs
# [17] = Toxicity in Kunming mouse assessed as increase in body weight at 1852 mg/kg, po measured for 15 days (reference value: 12.38%); assay type: organism-based; conditions: in vivo, 360 h, time 15 day
# Mus musculus [18] = assay: Anti-inflammatory activity in po dosed C57BL/6 mouse model of DSS-induced acute ulcerative colitis assessed as reduction in IFN-gamma mRNA expression in colon administered once a day for 7 days by RT-PCR analysis; assay type: functional, organism-based; conditions: dose 100-300 mg/kg, time 7.0 day
# HCT-116 [19] = assay: Inhibition of TNF-alpha induced NF-kB activation in human HCT-116 cells assessed as decrease in phosphorylated p65 protein expression preincubated for 4 hrs and followed TNF-alpha stimulation and measured after 10 mins by Western blot analysis; assay type: cell-based; conditions: dose 12.5-50 µM, time 250.0 min
# DLD-1 [20] = assay: Effect on IKK protein expression in TNF-alpha stimulated human DLD-1 cells at 12.5 to 50 uM preincubated for 4 hrs and followed TNF-alpha stimulation and measured after 10 mins by Western blot analysis; assay type: functional, cell-based; conditions: dose 12.5-50 µM, time 250.0 min
# HCT-116 [21] = assay: Upregulation of JNK protein expression in TNF-alpha stimulated human HCT-116 cells at 50 uM preincubated for 4 hrs and followed TNF-alpha stimulation and measured after 10 mins by Western blot analysis; assay type: functional, cell-based; conditions: time 250.0 min
# [22] = Toxicity in Kunming mouse assessed as increase in body weight at 1111 mg/kg, po measured for 15 days (reference value: 12.38%); assay type: organism-based; conditions: in vivo, 360 h, time 15 day
# DLD-1 [23] = assay: Activation of MAPK signaling pathway in TNF-alpha stimulated human DLD-1 cells assessed as increase in phospho-JNK protein expression at 50 uM preincubated for 4 hrs and followed TNF-alpha stimulation and measured after 10 mins by Western blot analysis; assay type: cell-based; conditions: filed as activator, time 250.0 min
# [24] = Toxicity in C57BL/6 mouse model of DSS-induced acute ulcerative colitis assessed as effect on heart tissue at 100 to 300 mg/kg, po administered once a day for 7 days by H and E staining based analysis; assay type: organism-based; conditions: in vivo, 168 h, dose 100-300 mg/kg, time 7 day
# [25] = Toxicity in Kunming mouse assessed as number of mouse survived at 1111 mg/kg, po measured for 15 days; assay type: organism-based; conditions: in vivo, 360 h, time 15 day
# HCT-116 [26] = assay: Effect on IKK protein expression in TNF-alpha stimulated human HCT-116 cells at 12.5 to 50 uM preincubated for 4 hrs and followed TNF-alpha stimulation and measured after 10 mins by Western blot analysis; assay type: functional, cell-based; conditions: dose 12.5-50 µM, time 250.0 min
structure (smiles),measurement,setting,value
COC(=O)C1=C(C(=O)OC)C2OC1CC2C#Cc1ccc(C)cc1 (stereo unspecified),Activity,DLD-1 [1],Active
same,inhibition,DLD-1 [2],Active
same,selectivity ratio,[3],4.57
same,Activity,Mus musculus [4],Active
same,Activity,Mus musculus [5],Dose-Dependent Effect
same,Activity,HCT-116 [6],Active
same,inhibition,DLD-1 [7],Active
same,Activity,[8],0
same,Activity,Mus musculus [9],Dose-Dependent Effect
same,Activity,DLD-1 [10],Active
same,Activity,HCT-116 [11],Active
same,Activity,Mus musculus [12],Active
same,inhibition,[13],Active
same,inhibition,HCT-116 [14],Dose-Dependent Effect
same,IC50,[15],16.1 µM
same,CC50 at 4 h,[16],94.3 µM
same,Activity,[17],15.38%
same,Activity,Mus musculus [18],Dose-Dependent Effect
same,inhibition,HCT-116 [19],Dose-Dependent Effect
same,Activity,DLD-1 [20],inactive
same,Activity,HCT-116 [21],Active
same,Activity,[22],6.01%
same,Activity,DLD-1 [23],Active
same,Activity,[24],Non-Toxic
same,Activity,[25],0
same,Activity,HCT-116 [26],inactive
